Data taken from PubChem BioAssay (NCI).
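Here, GI50 denotes the concentration required for 50% inhibition of growth. TGI: total growth inhibition.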

Legend:
Assay in all cases: NCI-60 cell line screen, 384-well format
PC-3 prostate = system: PC-3 prostate
RPMI-8226 leukemia = system: RPMI-8226 leukemia
SNB-75 CNS = system: SNB-75 CNS
BT-549 breast = system: BT-549 breast
DU-145 prostate = system: DU-145 prostate
CAKI-1 renal = system: CAKI-1 renal
EKVX NSCLC = system: EKVX NSCLC
SK-MEL-5 melanoma = system: SK-MEL-5 melanoma
MCF7 breast = system: MCF7 breast
SF-268 CNS = system: SF-268 CNS
TK-10 renal = system: TK-10 renal
OVCAR-5 ovarian = system: OVCAR-5 ovarian
MALME-3M melanoma = system: MALME-3M melanoma
OVCAR-3 ovarian = system: OVCAR-3 ovarian
LOX IMVI melanoma = system: LOX IMVI melanoma
HCT-15 colon = system: HCT-15 colon
OVCAR-8 ovarian = system: OVCAR-8 ovarian
786-0 renal = system: 786-0 renal
MDA-MB-435 melanoma = system: MDA-MB-435 melanoma
KM12 colon = system: KM12 colon
UACC-62 melanoma = system: UACC-62 melanoma
ACHN renal = system: ACHN renal
SK-MEL-28 melanoma = system: SK-MEL-28 melanoma
SK-OV-3 ovarian = system: SK-OV-3 ovarian
K-562 leukemia = system: K-562 leukemia
SN12C renal = system: SN12C renal
NCI-H23 lung = system: NCI-H23 lung
HOP-92 NSCLC = system: HOP-92 NSCLC
NCI-H322M lung = system: NCI-H322M lung
SNB-19 CNS = system: SNB-19 CNS
CCRF-CEM leukemia = system: CCRF-CEM leukemia
MDA-MB-468 breast = system: MDA-MB-468 breast
UACC-257 melanoma = system: UACC-257 melanoma
UO-31 renal = system: UO-31 renal
HCC-2998 colon = system: HCC-2998 colon
SF-539 CNS = system: SF-539 CNS
T-47D breast = system: T-47D breast
NCI/ADR-RES ovarian = system: NCI/ADR-RES ovarian
NCI-H460 NSCLC = system: NCI-H460 NSCLC
A549 NSCLC = system: A549 NSCLC
OVCAR-4 ovarian = system: OVCAR-4 ovarian
HOP-62 NSCLC = system: HOP-62 NSCLC
HT29 colon = system: HT29 colon
NCI-H226 lung = system: NCI-H226 lung
HL-60(TB) leukemia = system: HL-60(TB) leukemia
MOLT-4 leukemia = system: MOLT-4 leukemia
RXF 393 renal = system: RXF 393 renal
COLO 205 colon = system: COLO 205 colon
A498 renal = system: A498 renal
SF-295 CNS = system: SF-295 CNS
SR leukemia = system: SR leukemia
M14 melanoma = system: M14 melanoma
NCI-H522 lung = system: NCI-H522 lung
SW-620 colon = system: SW-620 colon
IGROV1 ovarian = system: IGROV1 ovarian
HS 578T breast = system: HS 578T breast
MDA-MB-231 breast = system: MDA-MB-231 breast

**Q.** For `CN1CCN(c2cc(C(=O)Nc3cc4cc(-c5cnn(C)c5)ccc4cn3)ccn2)CC1`, which GI50 (PC-3 prostate) is on record?
**A.** 76.7 nM

**Q.** What about the TGI (PC-3 prostate) of the same molecule?
**A.** 514 nM

**Q.** What about the GI50 (RPMI-8226 leukemia) of the same molecule?
**A.** 24.5 nM

**Q.** And the TGI (RPMI-8226 leukemia)?
**A.** 49.1 nM

**Q.** And the GI50 (SNB-75 CNS)?
**A.** 105 nM

**Q.** What about the TGI (SNB-75 CNS) of the same molecule?
**A.** 261 nM

**Q.** And the GI50 (BT-549 breast)?
**A.** 28.3 nM

**Q.** What about the TGI (BT-549 breast) of the same molecule?
**A.** 71.4 nM

**Q.** And the GI50 (DU-145 prostate)?
**A.** 50.2 nM

**Q.** What about the TGI (DU-145 prostate) of the same molecule?
**A.** 282 nM

**Q.** What about the GI50 (CAKI-1 renal) of the same molecule?
**A.** 35.3 nM

**Q.** What about the TGI (CAKI-1 renal) of the same molecule?
**A.** 210 nM

**Q.** What about the GI50 (EKVX NSCLC) of the same molecule?
**A.** 62.5 nM

**Q.** What about the TGI (EKVX NSCLC) of the same molecule?
**A.** 1600 nM

**Q.** And the GI50 (SK-MEL-5 melanoma)?
**A.** 22.9 nM

**Q.** What about the TGI (SK-MEL-5 melanoma) of the same molecule?
**A.** 92.2 nM

**Q.** And the GI50 (MCF7 breast)?
**A.** 55.9 nM

**Q.** What about the TGI (MCF7 breast) of the same molecule?
**A.** 221 nM

**Q.** What about the GI50 (SF-268 CNS) of the same molecule?
**A.** 142 nM

**Q.** What about the TGI (SF-268 CNS) of the same molecule?
**A.** 438 nM

**Q.** What about the GI50 (TK-10 renal) of the same molecule?
**A.** 116 nM

**Q.** And the TGI (TK-10 renal)?
**A.** 442 nM

**Q.** What about the GI50 (OVCAR-5 ovarian) of the same molecule?
**A.** 167 nM

**Q.** What about the TGI (OVCAR-5 ovarian) of the same molecule?
**A.** 640 nM

**Q.** And the GI50 (MALME-3M melanoma)?
**A.** 84.6 nM

**Q.** And the TGI (MALME-3M melanoma)?
**A.** 213 nM

**Q.** And the GI50 (OVCAR-3 ovarian)?
**A.** 30.2 nM

**Q.** What about the TGI (OVCAR-3 ovarian) of the same molecule?
**A.** 82.5 nM

**Q.** And the GI50 (LOX IMVI melanoma)?
**A.** 51.7 nM

**Q.** And the TGI (LOX IMVI melanoma)?
**A.** 172 nM

**Q.** And the GI50 (HCT-15 colon)?
**A.** 39.1 nM

**Q.** What about the TGI (HCT-15 colon) of the same molecule?
**A.** 157 nM

**Q.** And the GI50 (OVCAR-8 ovarian)?
**A.** 72.4 nM

**Q.** And the TGI (OVCAR-8 ovarian)?
**A.** 302 nM

**Q.** What about the GI50 ([…]-0 renal) of the same molecule?
**A.** 154 nM

**Q.** What about the TGI (786-0 renal) of the same molecule?
**A.** 316 nM

**Q.** What about the GI50 (MDA-MB-435 melanoma) of the same molecule?
**A.** 86.9 nM

**Q.** What about the TGI (MDA-MB-435 melanoma) of the same molecule?
**A.** 283 nM

**Q.** What about the GI50 (KM12 colon) of the same molecule?
**A.** 32.9 nM

**Q.** And the TGI (KM12 colon)?
**A.** 209 nM

**Q.** And the GI50 (UACC-62 melanoma)?
**A.** 27.8 nM

**Q.** And the TGI (UACC-62 melanoma)?
**A.** 88.7 nM

**Q.** What about the GI50 (ACHN renal) of the same molecule?
**A.** 47.5 nM

**Q.** What about the TGI (ACHN renal) of the same molecule?
**A.** 219 nM

**Q.** What about the GI50 (SK-MEL-28 melanoma) of the same molecule?
**A.** 125 nM

**Q.** What about the TGI (SK-MEL-28 melanoma) of the same molecule?
**A.** 259 nM

**Q.** What about the GI50 (SK-OV-3 ovarian) of the same molecule?
**A.** 28.1 nM

**Q.** What about the TGI (SK-OV-3 ovarian) of the same molecule?
**A.** 112 nM

**Q.** And the GI50 (K-562 leukemia)?
**A.** 52.8 nM

**Q.** What about the TGI (K-562 leukemia) of the same molecule?
**A.** 345 nM

**Q.** And the GI50 (SN12C renal)?
**A.** 55.3 nM

**Q.** What about the TGI (SN12C renal) of the same molecule?
**A.** 228 nM

**Q.** What about the GI50 (NCI-H23 lung) of the same molecule?
**A.** 18.9 nM

**Q.** What about the TGI (NCI-H23 lung) of the same molecule?
**A.** 47.5 nM

**Q.** And the GI50 (HOP-92 NSCLC)?
**A.** 39.6 nM

**Q.** And the TGI (HOP-92 NSCLC)?
**A.** 398 nM

**Q.** And the GI50 (NCI-H322M lung)?
**A.** 68.2 nM

**Q.** And the TGI (NCI-H322M lung)?
**A.** 858 nM

**Q.** What about the GI50 (SNB-19 CNS) of the same molecule?
**A.** 41.6 nM

**Q.** What about the TGI (SNB-19 CNS) of the same molecule?
**A.** 10200 nM

**Q.** What about the GI50 (CCRF-CEM leukemia) of the same molecule?
**A.** 25.6 nM

**Q.** What about the TGI (CCRF-CEM leukemia) of the same molecule?
**A.** 53.5 nM

**Q.** And the GI50 (MDA-MB-468 breast)?
**A.** 26.8 nM

**Q.** And the TGI (MDA-MB-468 breast)?
**A.** 53.9 nM

**Q.** And the GI50 (UACC-257 melanoma)?
**A.** 36.3 nM

**Q.** And the TGI (UACC-257 melanoma)?
**A.** 107 nM

**Q.** And the GI50 (UO-31 renal)?
**A.** 158 nM

**Q.** And the TGI (UO-31 renal)?
**A.** 3160 nM

**Q.** And the GI50 (HCC-2998 colon)?
**A.** 105 nM

**Q.** What about the TGI (HCC-2998 colon) of the same molecule?
**A.** 287 nM

**Q.** What about the GI50 (SF-539 CNS) of the same molecule?
**A.** 121 nM

**Q.** What about the TGI (SF-539 CNS) of the same molecule?
**A.** 322 nM

**Q.** What about the GI50 (T-47D breast) of the same molecule?
**A.** 67 nM

**Q.** What about the TGI (T-47D breast) of the same molecule?
**A.** 340 nM

**Q.** What about the GI50 (NCI/ADR-RES ovarian) of the same molecule?
**A.** 71.4 nM

**Q.** And the TGI (NCI/ADR-RES ovarian)?
**A.** 244 nM

**Q.** What about the GI50 (NCI-H460 NSCLC) of the same molecule?
**A.** 51 nM

**Q.** What about the TGI (NCI-H460 NSCLC) of the same molecule?
**A.** 190 nM

**Q.** What about the GI50 (A549 NSCLC) of the same molecule?
**A.** 30.7 nM

**Q.** And the TGI (A549 NSCLC)?
**A.** 129 nM

**Q.** What about the GI50 (OVCAR-4 ovarian) of the same molecule?
**A.** 58.9 nM

**Q.** What about the TGI (OVCAR-4 ovarian) of the same molecule?
**A.** 187 nM

**Q.** What about the GI50 (HOP-62 NSCLC) of the same molecule?
**A.** 31.8 nM

**Q.** What about the TGI (HOP-62 NSCLC) of the same molecule?
**A.** 145 nM

**Q.** And the GI50 (HT29 colon)?
**A.** 138 nM

**Q.** And the TGI (HT29 colon)?
**A.** 286 nM

**Q.** And the GI50 (NCI-H226 lung)?
**A.** 131 nM

**Q.** And the TGI (NCI-H226 lung)?
**A.** 370 nM

**Q.** What about the GI50 (HL-60(TB) leukemia) of the same molecule?
**A.** 99.4 nM

**Q.** What about the TGI (HL-60(TB) leukemia) of the same molecule?
**A.** 219 nM

**Q.** What about the GI50 (MOLT-4 leukemia) of the same molecule?
**A.** 18 nM

**Q.** And the TGI (MOLT-4 leukemia)?
**A.** 33 nM

**Q.** What about the GI50 (RXF 393 renal) of the same molecule?
**A.** 118 nM

**Q.** What about the TGI (RXF 393 renal) of the same molecule?
**A.** 245 nM

**Q.** And the GI50 (COLO 205 colon)?
**A.** 26 nM

**Q.** And the TGI (COLO 205 colon)?
**A.** 64.1 nM

**Q.** What about the GI50 (A498 renal) of the same molecule?
**A.** 32.8 nM

**Q.** What about the TGI (A498 renal) of the same molecule?
**A.** 158 nM

**Q.** What about the GI50 (SF-295 CNS) of the same molecule?
**A.** 99.8 nM

**Q.** And the TGI (SF-295 CNS)?
**A.** 314 nM

**Q.** And the GI50 (SR leukemia)?
**A.** 19.5 nM

**Q.** And the TGI (SR leukemia)?
**A.** 40.8 nM

**Q.** And the GI50 (M14 melanoma)?
**A.** 75.9 nM

**Q.** What about the TGI (M14 melanoma) of the same molecule?
**A.** 221 nM

**Q.** And the GI50 (NCI-H522 lung)?
**A.** 26.6 nM

**Q.** What about the TGI (NCI-H522 lung) of the same molecule?
**A.** 65.5 nM

**Q.** What about the GI50 (SW-620 colon) of the same molecule?
**A.** 33.6 nM

**Q.** And the TGI (SW-620 colon)?
**A.** 1580 nM

**Q.** And the GI50 (IGROV1 ovarian)?
**A.** 52.1 nM

**Q.** What about the TGI (IGROV1 ovarian) of the same molecule?
**A.** 255 nM

**Q.** What about the GI50 (HS 578T breast) of the same molecule?
**A.** 38.9 nM

**Q.** What about the TGI (HS 578T breast) of the same molecule?
**A.** 152 nM

**Q.** What about the GI50 (MDA-MB-231 breast) of the same molecule?
**A.** 87 nM

**Q.** What about the TGI (MDA-MB-231 breast) of the same molecule?
**A.** 654 nM
